Laboratory results reported in PubChem BioAssay (NCI).
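GI50 = concentration required for 50% inhibition of growth. The concentration for full growth arrest is given as TGI.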

Key:
Experiment in all cases: NCI anticancer screen, dose series, 384-well format
SK-MEL-5 melanoma = system: SK-MEL-5 melanoma
LOX IMVI melanoma = system: LOX IMVI melanoma
BT-549 breast = system: BT-549 breast
SNB-75 CNS = system: SNB-75 CNS
DU-145 prostate = system: DU-145 prostate
T-47D breast = system: T-47D breast
CAKI-1 renal = system: CAKI-1 renal
KM12 colon = system: KM12 colon
M14 melanoma = system: M14 melanoma
SK-MEL-2 melanoma = system: SK-MEL-2 melanoma
UO-31 renal = system: UO-31 renal
NCI-H226 lung = system: NCI-H226 lung
HOP-92 NSCLC = system: HOP-92 NSCLC
SK-MEL-28 melanoma = system: SK-MEL-28 melanoma
HCT-15 colon = system: HCT-15 colon
EKVX NSCLC = system: EKVX NSCLC
UACC-62 melanoma = system: UACC-62 melanoma
OVCAR-3 ovarian = system: OVCAR-3 ovarian
RXF 393 renal = system: RXF 393 renal
ACHN renal = system: ACHN renal
A549 NSCLC = system: A549 NSCLC
MDA-MB-435 melanoma = system: MDA-MB-435 melanoma
IGROV1 ovarian = system: IGROV1 ovarian
TK-10 renal = system: TK-10 renal
UACC-257 melanoma = system: UACC-257 melanoma
SF-295 CNS = system: SF-295 CNS
SK-OV-3 ovarian = system: SK-OV-3 ovarian
HL-60(TB) leukemia = system: HL-60(TB) leukemia
PC-3 prostate = system: PC-3 prostate
MDA-MB-231 breast = system: MDA-MB-231 breast
MCF7 breast = system: MCF7 breast
NCI-H322M lung = system: NCI-H322M lung
HS 578T breast = system: HS 578T breast
RPMI-8226 leukemia = system: RPMI-8226 leukemia
HT29 colon = system: HT29 colon
COLO 205 colon = system: COLO 205 colon
SF-268 CNS = system: SF-268 CNS
HCT-116 colon = system: HCT-116 colon
NCI/ADR-RES ovarian = system: NCI/ADR-RES ovarian
MDA-MB-468 breast = system: MDA-MB-468 breast
OVCAR-4 ovarian = system: OVCAR-4 ovarian
OVCAR-5 ovarian = system: OVCAR-5 ovarian
SR leukemia = system: SR leukemia
U251 glioblastoma = system: U251 glioblastoma
SW-620 colon = system: SW-620 colon
A498 renal = system: A498 renal
MOLT-4 leukemia = system: MOLT-4 leukemia
SN12C renal = system: SN12C renal
NCI-H522 lung = system: NCI-H522 lung
HCC-2998 colon = system: HCC-2998 colon
CCRF-CEM leukemia = system: CCRF-CEM leukemia
SNB-19 CNS = system: SNB-19 CNS
SF-539 CNS = system: SF-539 CNS
HOP-62 NSCLC = system: HOP-62 NSCLC
MALME-3M melanoma = system: MALME-3M melanoma
786-0 renal = system: 786-0 renal
K-562 leukemia = system: K-562 leukemia
NCI-H23 lung = system: NCI-H23 lung
NCI-H460 NSCLC = system: NCI-H460 NSCLC

For O=[N+]([O-])c1ccc(Nc2ccccc2-c2ccccc2)c2nonc12, the GI50 (SK-MEL-5 melanoma) was 12.9 µM, the TGI (SK-MEL-5 melanoma) was 25.7 µM and the GI50 (LOX IMVI melanoma) was 15.9 µM. For the same compound, the TGI (LOX IMVI melanoma) was 29.7 µM, the GI50 (BT-549 breast) was 17.1 µM and the TGI (BT-549 breast) was 32.2 µM. It also gave a GI50 (SNB-75 CNS) of 14.1 µM, a TGI (SNB-75 CNS) of 34 µM and a GI50 (DU-145 prostate) of 16.3 µM. It also gave a TGI (DU-145 prostate) of 51.2 µM, a GI50 (T-47D breast) of 7.99 µM and a TGI (T-47D breast) of 30.9 µM. It also gave a GI50 (CAKI-1 renal) of 14.5 µM, a TGI (CAKI-1 renal) of 33.3 µM and a GI50 (KM12 colon) of 16.4 µM. It also gave a TGI (KM12 colon) of 33 µM, a GI50 (M14 melanoma) of 13.9 µM and a TGI (M14 melanoma) of 30.9 µM. The GI50 (SK-MEL-2 melanoma) was 23 µM, the TGI (SK-MEL-2 melanoma) was 37.9 µM and the GI50 (UO-31 renal) was 13 µM. The TGI (UO-31 renal) was 27.5 µM, the GI50 (NCI-H226 lung) was 11.2 µM and the TGI (NCI-H226 lung) was 23.6 µM. It also gave a GI50 (HOP-92 NSCLC) of 10.5 µM, a TGI (HOP-92 NSCLC) of 24.8 µM and a GI50 (SK-MEL-28 melanoma) of 13.2 µM. For the same compound, the TGI (SK-MEL-28 melanoma) was 29.7 µM, the GI50 (HCT-15 colon) was 14.3 µM and the TGI (HCT-15 colon) was 29.2 µM. For the same compound, the GI50 (EKVX NSCLC) was 13.2 µM, the TGI (EKVX NSCLC) was 30 µM and the GI50 (UACC-62 melanoma) was 13.6 µM. The TGI (UACC-62 melanoma) was 28.3 µM, the GI50 (OVCAR-3 ovarian) was 11.9 µM and the TGI (OVCAR-3 ovarian) was 25.1 µM. For the same compound, the GI50 (RXF 393 renal) was 17.4 µM, the TGI (RXF 393 renal) was 32.2 µM and the GI50 (ACHN renal) was 15.6 µM. It also gave a TGI (ACHN renal) of 34.2 µM, a GI50 (A549 NSCLC) of 14.1 µM and a TGI (A549 NSCLC) of 30.9 µM. For the same compound, the GI50 (MDA-MB-435 melanoma) was 10.7 µM, the TGI (MDA-MB-435 melanoma) was 30.1 µM and the GI50 (IGROV1 ovarian) was 16.1 µM. For the same compound, the TGI (IGROV1 ovarian) was 36.2 µM, the GI50 (TK-10 renal) was 14 µM and the TGI (TK-10 renal) was 34.8 µM. It also gave a GI50 (UACC-257 melanoma) of 16.5 µM, a TGI (UACC-257 melanoma) of 36.1 µM and a GI50 (SF-295 CNS) of 10.1 µM. The TGI (SF-295 CNS) was 22.9 µM, the GI50 (SK-OV-3 ovarian) was 19.9 µM and the TGI (SK-OV-3 ovarian) was 40.4 µM. For the same compound, the GI50 (HL-60(TB) leukemia) was 13.3 µM, the TGI (HL-60(TB) leukemia) was 26.5 µM and the GI50 (PC-3 prostate) was 12.8 µM. The TGI (PC-3 prostate) was 27 µM, the GI50 (MDA-MB-231 breast) was 16.2 µM and the TGI (MDA-MB-231 breast) was 35.1 µM. For the same compound, the GI50 (MCF7 breast) was 13.8 µM, the TGI (MCF7 breast) was 31.3 µM and the GI50 (NCI-H322M lung) was 17.5 µM. It also gave a TGI (NCI-H322M lung) of 37.3 µM, a GI50 (HS 578T breast) of 10.4 µM and a TGI (HS 578T breast) of 23.8 µM. It also gave a GI50 (RPMI-8226 leukemia) of 7.48 µM, a TGI (RPMI-8226 leukemia) of 20 µM and a GI50 (HT29 colon) of 15.9 µM. For the same compound, the TGI (HT29 colon) was 33.8 µM, the GI50 (COLO 205 colon) was 17.5 µM and the TGI (COLO 205 colon) was 42.3 µM. It also gave a GI50 (SF-268 CNS) of 15.6 µM, a TGI (SF-268 CNS) of 34.1 µM and a GI50 (HCT-116 colon) of 13.9 µM. For the same compound, the TGI (HCT-116 colon) was 28.2 µM, the GI50 (NCI/ADR-RES ovarian) was 12.7 µM and the TGI (NCI/ADR-RES ovarian) was 27.9 µM. It also gave a GI50 (MDA-MB-468 breast) of 3.96 µM, a TGI (MDA-MB-468 breast) of 15.4 µM and a GI50 (OVCAR-4 ovarian) of 7.68 µM. It also gave a TGI (OVCAR-4 ovarian) of 28.4 µM, a GI50 (OVCAR-5 ovarian) of 15.8 µM and a TGI (OVCAR-5 ovarian) of 36.9 µM. It also gave a GI50 (SR leukemia) of 19 µM, a TGI (SR leukemia) of 33.3 µM and a GI50 (U251 glioblastoma) of 11.2 µM. For the same compound, the TGI (U251 glioblastoma) was 25.7 µM, the GI50 (SW-620 colon) was 16.4 µM and the TGI (SW-620 colon) was 35.7 µM. The GI50 (A498 renal) was 14.9 µM, the TGI (A498 renal) was 32.3 µM and the GI50 (MOLT-4 leukemia) was 12.8 µM. For the same compound, the TGI (MOLT-4 leukemia) was 25.6 µM, the GI50 (SN12C renal) was 11.9 µM and the TGI (SN12C renal) was 28.6 µM. For the same compound, the GI50 (NCI-H522 lung) was 9.27 µM, the TGI (NCI-H522 lung) was 22.9 µM and the GI50 (HCC-2998 colon) was 22.3 µM. It also gave a TGI (HCC-2998 colon) of 40.8 µM, a GI50 (CCRF-CEM leukemia) of 11.3 µM and a TGI (CCRF-CEM leukemia) of 23.6 µM. For the same compound, the GI50 (SNB-19 CNS) was 12.9 µM, the TGI (SNB-19 CNS) was 35.1 µM and the GI50 (SF-539 CNS) was 17.4 µM. For the same compound, the TGI (SF-539 CNS) was 33.2 µM, the GI50 (HOP-62 NSCLC) was 13.7 µM and the TGI (HOP-62 NSCLC) was 28.4 µM. The GI50 (MALME-3M melanoma) was 16.8 µM, the TGI (MALME-3M melanoma) was 36.3 µM and the GI50 ([…]-0 renal) was 12.6 µM. It also gave a TGI (786-0 renal) of 25.6 µM, a GI50 (K-562 leukemia) of 11.5 µM and a TGI (K-562 leukemia) of 28.6 µM. For the same compound, the GI50 (NCI-H23 lung) was 5.93 µM, the TGI (NCI-H23 lung) was 20.5 µM and the GI50 (NCI-H460 NSCLC) was 11 µM. For the same compound, the TGI (NCI-H460 NSCLC) was 24.1 µM.
